From ChEMBL document CHEMBL3045943, “Novel N-aryl(alkaryl)-2-[(3-R-2-oxo-2H-[1,2,4]triazino[2,3-c]quinazoline-6-yl)thio]acetamides: synthesis, cytotoxicity, anticancer activity, COMPARE analysis and docking” (2013)

Key:
Type in all cases: functional
UO-31 = assay: Cytotoxicity against Homo sapiens (human) UO31 cells assessed as cell growth at 10 uM after 48 hr by SRB assay relative to control; conditions: UO-31, 48 h, read-out: Activity
IGROV-1 = assay: Cytotoxicity against Homo sapiens (human) IGROV1 cells after 48 hr by SRB assay; conditions: IGROV-1, 48 h
A498 [1] = assay: Cytotoxicity against Homo sapiens (human) A498 cells after 48 hr by SRB assay; conditions: A498, 48 h
LOX IMVI = assay: Cytotoxicity against Homo sapiens (human) LOXIMVI cells after 48 hr by SRB assay
ACHN = assay: Cytotoxicity against Homo sapiens (human) ACHN cells after 48 hr by SRB assay
SF-539 = assay: Cytotoxicity against Homo sapiens (human) SF539 cells after 48 hr by SRB assay; conditions: SF-539, 48 h
CAKI-1 = assay: Cytotoxicity against Homo sapiens (human) Caki1 cells after 48 hr by SRB assay; conditions: CAKI-1, 48 h
786-0 = assay: Cytotoxicity against Homo sapiens (human) 786-0 cells after 48 hr by SRB assay; conditions: 786-0, 48 h
HCT-116 = assay: Cytotoxicity against Homo sapiens (human) HCT116 cells after 48 hr by SRB assay; conditions: HCT-116, 48 h
BT-549 = assay: Cytotoxicity against Homo sapiens (human) BT549 cells after 48 hr by SRB assay; conditions: BT-549, 48 h
SF-295 = assay: Cytotoxicity against Homo sapiens (human) SF295 cells after 48 hr by SRB assay; conditions: SF-295, 48 h
A498 [2] = assay: Cytotoxicity against Homo sapiens (human) A498 cells assessed as cell growth at 10 uM after 48 hr by SRB assay relative to control; conditions: A498, 48 h, read-out: Activity
MCF7 [3] = assay: Cytotoxicity against Homo sapiens (human) MCF7 cells assessed as cell growth at 10 uM after 48 hr by SRB assay relative to control; conditions: MCF7, 48 h, read-out: Activity
M14 = assay: Cytotoxicity against Homo sapiens (human) M14 cells after 48 hr by SRB assay; conditions: M14, 48 h
HT-29 = assay: Cytotoxicity against Homo sapiens (human) HT-29 cells assessed as cell growth at 10 uM after 48 hr by SRB assay relative to control; conditions: HT-29, 48 h, read-out: Activity
UACC-62 [4] = assay: Cytotoxicity against Homo sapiens (human) UACC62 cells after 48 hr by SRB assay; conditions: UACC-62, 48 h
OVCAR-8 = assay: Cytotoxicity against Homo sapiens (human) OVCAR8 cells assessed as cell growth at 10 uM after 48 hr by SRB assay relative to control; conditions: OVCAR-8, 48 h, read-out: Activity
SNB-75 = assay: Cytotoxicity against Homo sapiens (human) SNB75 cells assessed as cell growth at 10 uM after 48 hr by SRB assay relative to control; conditions: SNB-75, 48 h, read-out: Activity
HOP-62 = assay: Cytotoxicity against Homo sapiens (human) HOP62 cells assessed as cell growth at 10 uM after 48 hr by SRB assay relative to control; conditions: HOP-62, 48 h, read-out: Activity
SK-MEL-5 = assay: Cytotoxicity against Homo sapiens (human) SK-MEL-5 cells assessed as cell growth at 10 uM after 48 hr by SRB assay relative to control; conditions: SK-MEL-5, 48 h, read-out: Activity
MCF7 [5] = assay: Cytotoxicity against Homo sapiens (human) MCF7 cells after 48 hr by SRB assay; conditions: MCF7, 48 h
UACC-62 [6] = assay: Cytotoxicity against Homo sapiens (human) UACC62 cells assessed as cell growth at 10 uM after 48 hr by SRB assay relative to control; conditions: UACC-62, 48 h, read-out: Activity
Malme-3M = assay: Cytotoxicity against Homo sapiens (human) MALME-3M cells after 48 hr by SRB assay
MDA-MB-468 = assay: Cytotoxicity against Homo sapiens (human) MDA-MB-468 cells assessed as cell growth at 10 uM after 48 hr by SRB assay relative to control; conditions: MDA-MB-468, 48 h, read-out: Activity
UACC-257 = assay: Cytotoxicity against Homo sapiens (human) UACC257 cells assessed as cell growth at 10 uM after 48 hr by SRB assay relative to control; conditions: UACC-257, 48 h, read-out: Activity
U-251 [7] = assay: Cytotoxicity against Homo sapiens (human) U251 cells after 48 hr by SRB assay; conditions: U-251, 48 h
NCI-H522 = assay: Cytotoxicity against Homo sapiens (human) NCI-H522 cells assessed as cell growth at 10 uM after 48 hr by SRB assay relative to control; conditions: NCI-H522, 48 h, read-out: Activity
U-251 [8] = assay: Cytotoxicity against Homo sapiens (human) U251 cells assessed as cell growth at 10 uM after 48 hr by SRB assay relative to control; conditions: U-251, 48 h, read-out: Activity
DU-145 = assay: Cytotoxicity against Homo sapiens (human) DU145 cells after 48 hr by SRB assay; conditions: DU-145, 48 h
HCT-15 = assay: Cytotoxicity against Homo sapiens (human) HCT15 cells assessed as cell growth at 10 uM after 48 hr by SRB assay relative to control; conditions: HCT-15, 48 h, read-out: Activity
SK-MEL-28 = assay: Cytotoxicity against Homo sapiens (human) SK-MEL-28 cells assessed as cell growth at 10 uM after 48 hr by SRB assay relative to control; conditions: SK-MEL-28, 48 h, read-out: Activity
HOP-92 = assay: Cytotoxicity against Homo sapiens (human) HOP92 cells after 48 hr by SRB assay; conditions: HOP-92, 48 h
[9] = read-out: pLC50 (the source's name) (converted)

Compound: COc1ccccc1CNC(=O)CSc1nc2ccccc2c2nc(=O)c(-c3ccccc3)nn12
- growth at 10 µM (UO-31): 43.8%
- GI50 (IGROV-1): 3.02 µM
- CC50 (IGROV-1; [9]): > 100 µM
- TGI (IGROV-1; read-out: pTGI): > 100 µM
- GI50 (A498 [1]): 1.17 µM
- LC50 (A498 [1]): > 100 µM
- TGI (A498 [1]; read-out: pTGI (converted)): 4.07 µM
- GI50 (LOX IMVI): 2.09 µM
- CC50 (LOX IMVI; [9]): > 100 µM
- TGI (LOX IMVI; read-out: pTGI): > 100 µM
- GI50 (ACHN): 1.86 µM
- CC50 (ACHN; [9]): > 100 µM
- TGI (ACHN; read-out: pTGI): > 100 µM
- GI50 (SF-539): 1.82 µM
- CC50 (SF-539; [9]): > 100 µM
- TGI (SF-539; read-out: pTGI): > 100 µM
- GI50 (CAKI-1): 1.91 µM
- CC50 (CAKI-1; [9]): > 100 µM
- TGI (CAKI-1; read-out: pTGI): > 100 µM
- GI50 (786-0): 2.24 µM
- CC50 (786-0; [9]): > 100 µM
- TGI (786-0; read-out: pTGI): 5.25 µM
- GI50 (HCT-116): 2.69 µM
- CC50 (HCT-116; [9]): > 100 µM
- TGI (HCT-116; read-out: pTGI): > 100 µM
- GI50 (BT-549): 2.14 µM
- LC50 (BT-549): 74.1 µM
- TGI (BT-549; read-out: pTGI (converted)): 3.98 µM
- GI50 (SF-295): 2.45 µM
- CC50 (SF-295; [9]): > 100 µM
- TGI (SF-295; read-out: pTGI (converted)): 8.51 µM
- growth at 10 µM (A498 [2]): -23.1%

Compound: COc1ccc(-c2nn3c(SCC(=O)Nc4ccccc4Cl)nc4ccccc4c3nc2=O)cc1
- growth at 10 µM (MCF7 [3]): 32.8%
- GI50 (M14): 2.63 µM
- CC50 (M14; [9]): > 100 µM
- TGI (M14; read-out: pTGI (converted)): 100 µM
- growth at 10 µM (HT-29): 5.16%
- GI50 (UACC-62 [4]): 2.75 µM
- CC50 (UACC-62 [4]; [9]): > 100 µM
- TGI (UACC-62 [4]; read-out: pTGI (converted)): 67.6 µM
- growth at 10 µM (OVCAR-8): 31.5%
- growth at 10 µM (SNB-75): 55.6%
- growth at 10 µM (HOP-62): 30.3%
- growth at 10 µM (SK-MEL-5): 41.4%
- GI50 (MCF7 [5]): 2.34 µM
- CC50 (MCF7 [5]; [9]): > 100 µM
- TGI (MCF7 [5]; read-out: pTGI): > 100 µM
- growth at 10 µM (UACC-62 [6]): 18.1%
- GI50 (Malme-3M): 1.86 µM
- CC50 (Malme-3M; [9]): > 100 µM
- TGI (Malme-3M; read-out: pTGI (converted)): 7.94 µM
- growth at 10 µM (MDA-MB-468): 44.3%
- growth at 10 µM (UACC-257): -17.1%
- GI50 (U-251 [7]): 1.78 µM
- LC50 (U-251 [7]): 18.6 µM
- TGI (U-251 [7]; read-out: pTGI (converted)): 4.68 µM
- growth at 10 µM (NCI-H522): 36.5%
- growth at 10 µM (U-251 [8]): -22.6%
- GI50 (DU-145): 1.38 µM
- CC50 (DU-145; [9]): > 100 µM
- TGI (DU-145; read-out: pTGI): > 100 µM
- growth at 10 µM (HCT-15): 71.9%
- growth at 10 µM (SK-MEL-28): -5.98%
- GI50 (HOP-92): 1.82 µM
- CC50 (HOP-92; [9]): 42.7 µM
- TGI (HOP-92; read-out: pTGI (converted)): 9.12 µM
